The results in this text go back to patent publication US11976083B2, “Inhibitors of peptidylarginine deiminases” (Gilead Sciences, Inc., priority 2020, dated 2024).

The target of the test is T1, human PAD4 (Homo sapiens, UniProt Q9UM07).
T1 construct: human PAD4 (NM_012387), A2-P663, was PCR amplified; His-SUMO (N, cleaved yes); made in house; host or cells: E. coli BL21(DE3)
In words: In vitro PAD4 BAEE biochemical assay. The settings on record: BAEE substrate 3 mM, 5 nM PAD4, 2 mM calcium chloride; geometric mean of multiple experiments. In outline: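 Recombinant human PAD4 (5 nM final) with 2 mM CaCl2 was preincubated with compound 30 min at 25 °C in MOPS buffer pH 7.6, then reacted with 3 mM BAEE for 2 h at 25 °C. After EDTA stop, released ammonia was detected by o-phthalaldehyde/DTT fluorescence (ex 405/em 535 nm); IC50 from four-parameter fit, geometric mean.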

The IC50 is the concentration that gives 50% inhibition.

T1 sequence (Q9UM07 2-663): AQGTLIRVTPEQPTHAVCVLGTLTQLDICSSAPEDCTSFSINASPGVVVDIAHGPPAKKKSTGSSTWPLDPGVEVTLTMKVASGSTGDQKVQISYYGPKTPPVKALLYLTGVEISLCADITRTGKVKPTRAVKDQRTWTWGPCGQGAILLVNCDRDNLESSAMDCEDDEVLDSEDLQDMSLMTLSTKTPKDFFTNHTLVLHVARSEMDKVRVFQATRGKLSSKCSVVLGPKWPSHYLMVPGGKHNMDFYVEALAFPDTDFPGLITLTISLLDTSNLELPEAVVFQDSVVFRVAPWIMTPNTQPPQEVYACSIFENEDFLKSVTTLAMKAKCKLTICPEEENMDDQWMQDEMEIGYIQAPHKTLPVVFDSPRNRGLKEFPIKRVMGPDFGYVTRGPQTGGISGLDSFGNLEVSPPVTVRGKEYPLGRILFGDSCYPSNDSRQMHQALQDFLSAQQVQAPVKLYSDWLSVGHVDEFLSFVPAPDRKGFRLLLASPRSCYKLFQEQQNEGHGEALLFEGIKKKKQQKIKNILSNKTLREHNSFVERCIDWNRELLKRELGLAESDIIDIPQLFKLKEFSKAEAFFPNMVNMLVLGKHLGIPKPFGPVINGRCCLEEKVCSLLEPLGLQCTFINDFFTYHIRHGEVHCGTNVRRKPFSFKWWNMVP

For `COc1cc(C(=O)N2C[C@H](N)[C@@H]3CC[C@H]2C3)cc2nc(-c3cc4ccc5nc4n3CCCCCc3nccc(Cl)c3C(=O)N[C@@H]5C)n(C)c12` [Example 845, (2~{R})-17-[5-[(1~{S},4~{R}, 5~{R})-4-amino-2-azabicyclo [3.2.1]octane-2-carbonyl]-7-methoxy-1-methyl-benzimidazol-2-yl]-6-chloro-2-methyl-3,9,16,22-tetrazatetracyclo[14.5.2.0^ {5,10}.0^{19,23}]tricosa-1(22),5(10),6,8,17,19(23),20-heptaen-4-one], the IC50 is 0.016 µM. The value for `COc1cc(C(=O)N2[C@H]3CC[C@@H]2[C@H](N)C3)cc2nc(-c3cc4ccc5nc4n3CCC/C=C/c3ccccc3C(=O)N[C@@H]5C)n(C)c12` [Example 24, (2~{R},11~{E})-17-[5-[(1~{R},2~{R},4~{S})-2-amino-7-azabicyclo[2.2.1]heptane-7-carbonyl]-7-methoxy-1-methyl-benzimidazol-2-yl]-2-methyl-3,16,22-triazatetracyclo[14.5.2.0^{5,10}.0^{19,23}] tricosa-1(22),5,7,9,11,17,19(23),20-octaen-4-one] was 0.056 µM; that for `COc1cc(C(=O)N2[C@H]3CC[C@@H]2[C@H](N)C3)cc2nc(-c3cc4ccc5nc4n3CCCCOCCC(=O)N3CCC[C@H]53)n(C)c12` [Example 132, (2~{R})-16-[5-[(1~{R},2~{R),4~{S})-2-amino-7-azabicyclo[2.2.1]heptane-7-carbonyl]-7-methoxy-1-methyl-benzimidazol-2-yl]-10-oxa-6,15,21-triazatetracyclo[13.5.2.0^{2,6}.0^{18,22}] docosa-1(21),16,18(22),19-tetraen-7-one] was 0.028 µM. As to `COc1cc(C(=O)N2[C@H]3CC[C@@H]2[C@H](N)C3)cc2nc(-c3cc4ccc5nc4n3CCCCCCCC(=O)N(C)C5)n(C)c12` [Example 256, 17-[5-[(1~{R},2~{R},4~{S})-2-amino-7-azabicyclo[2.2.1]heptane-7-carbonyl]-7-methoxy-1-methyl-benzimidazol-2-yl]-10-methyl-1,10,19-triazatricyclo[10.5.2.0^{15,18}]nonadeca-12(19),13,15(18),16-tetraen-9-one], the IC50 was found to be 0.048 µM. The value for `C[C@H]1NC(=O)[C@@H]2C[C@H]2CCCCCn2c(-c3nc4cc(C(=O)N[C@H]5CNCC[C@@H]5F)c(F)cc4n3CCOc3ccccc3)cc3ccc1nc32` [Example 429] was 0.068 µM. The value for `COc1cc(C(=O)N2[C@H]3CC[C@@H]2[C@H](N)C3)cc2nc(-c3cc4ccc5nc4n3CCCCCCC(=O)Nc3ncccc3-5)n(C)c12` [Example 84, 17-[5-[(1~{R},2~{R},4~{S})-2-amino-7-azabicyclo[2.2.1]heptane-7-carbonyl]-7-methoxy-1-methyl-benzimidazol-2-yl]-6,8,16,22-tetrazatetracyclo[14.5.2.0^{2,7}.0^{19,23}] tricosa-1(22),2,4,6,17,19(23),20-heptaen-9-one] was 0.089 µM; that for `COc1cc(C(=O)N2CCC[C@@H](N)C2)cc2nc(-c3cc4ccc5cc4n3CCCCCCC(C)(C)C(=O)Nc3ncccc3-5)n(C)c12` [Example 53, 18-[5-[(3~{R})-3-aminopiperidine-1-carbonyl]-7-methoxy-1-methyl-benzimidazol-2-yl]-10,10-dimethyl-6,8,17-triazatetracyclo[15.5.2.0^{2,7}.0^{20,24}] tetracosa-1(23),2,4,6,18,20(24),21-heptaen-9-one] was 0.283 µM; that for `C[C@H]1NC(=O)[C@@H]2C[C@H]2CCCC(F)(F)Cn2c(-c3nc4cc(C(=O)N5C[C@H](N)[C@@H]6CC[C@H]5C6)cc(F)c4n3[C@H]3C[C@H]3C(F)F)cc3ccc1nc32` [Example 755, (2~{R},5~{R},7~{R})-14-[5-[(1~{S},4~{R},5~{R})-4-amino-2-azabicyclo[3.2.1]octane-2-carbonyl]-1-[(1~{S},2~{R})-2-(difluoromethyl)cyclopropyl]-7-fluoro-benzimidazol-2-yl]-11,11-difluoro-2-methyl-3,13,19-triazatetracyclo[11.5.2.0^ {5,7}.0^{16,20}]icosa-1(19),14,16(20),17-tetraen-4-one] was 0.029 µM.

On to `COc1cc(C(=O)N2CC[C@H]3OCCN[C@H]3C2)cc2nc(-c3cc4ccc5nc4n3C[C@H]3C[C@H]3COCCC(=O)N[C@@H]5C)n(C)c12` (single isomer, unassigned) [Example 245, (3˜{S},5˜{R},12˜{R})-18-[5-[(4˜{a}˜{S},8˜{a}˜{R})-2,3,4,4˜{a},5,7,8,8˜{a}-octahydropyrido[4,3-b][1,4]oxazine-6-carbonyl]-7-methoxy-1-methyl-benzimidazol-2-yl]-12-methyl-7-oxa-1,11,20-triazatetracyclo[11.5.2.0^{3,5}.0^{16,19}]icosa-13(20),14,16(19),17-tetraen-10-one], for which the 50% inhibitory concentration (IC50) was determined as 0.411 µM. The value for `C[C@H]1NC(=O)[C@@H]2C[C@H]2CCCCCn2c(-c3nc4cc(C(=O)N5[C@H]6CC[C@@H]5[C@H](N)C6)c(F)cc4n3C3CC3)cc3ccc1nc32` [Example 557, (2~{R},5~{R},7~{R})-14-[5-[(1~{R},2~{R},4~ {S})-2-amino-7-azabicyclo [2.2.1]heptane-7-carbonyl]-1-cyclopropyl-6-fluoro-benzimidazol-2-yl]-2-methyl-3,13,19-triazatetracyclo[11.5.2.0^ {5,7}.0^{16,20}] icosa-1(19),14,16(20), 17-tetraen-4-one] was 0.031 µM. The value for `COc1cc(C(=O)N2CCC[C@@H](N)C2)cc2nc(-c3cc4ccc5nc4n3C/C=C(/F)COCCC(=O)N[C@@H]5C)n(C)c12` [Example 620, (3~{E},11~{R})-17-[5-[(3~{R})-3-aminopiperidine-1-carbonyl]-7-methoxy-1-methyl-benzimidazol-2-yl]-4-fluoro-11-methyl-6-oxa-1,10,19-triazatricyclo[10.5.2.0^ {15,18}]nonadeca-3,12(19),13,15(18), 16-pentaen-9-one] was 0.036 µM.

Turning to `C[C@H]1NC(=O)c2ccccc2CC[C@@H]2C[C@H]2Cn2c(-c3nc4cc(C(=O)N[C@H]5CNCC[C@@H]5F)c(F)cc4n3C3CC3)cc3ccc1nc32` [Example 348, 1-cyclopropyl-6-fluoro-~{N}-[(3~{S},4~{S})-4-fluoro-3-piperidyl]-2-[(3~{R},5~{R},16~{R})-16-methyl-14-oxo-1,15,24-triazapentacyclo[15.5.2.0^{3,5}.0^{8,13}.0^ {20,23}]tetracosa-8,10,12,17(24),18,20(23),21-heptaen-22-yl]benzimidazole-5-carboxamide], the IC50 came to 0.066 µM. On to `CO[C@@H]1CCN(C(=O)c2cc(F)c3c(c2)nc(-c2cc4ccc5nc4n2CCCCCc2ccnc(C(F)(F)F)c2C(=O)N[C@@H]5C)n3C2CC2)C[C@@H]1N` [Example 836, (2~{R})-17-[5-[(3~{S}, 4~{R})-3-amino-4-methoxy-piperidine-1-carbonyl]-1-cyclopropyl-7-fluoro-benzimidazol-2-yl]-2-methyl-6-(trifluoromethyl)-3,7,16,22-tetrazatetracyclo[14.5.2.0^ {5,10}.0^{19,23}] tricosa-1(22),5(10), 6,8,17,19(23),20-heptaen-4-one], for which the IC50 came out at 0.032 µM.
